Results taken from publication PMC6033896, “Discovery of Mcl-1 inhibitors from integrated high throughput and virtual screening” (Scientific Reports, 2018).

Columns and labels:
[1] = system: Bak−/− single knockout MEFs; experiment: MEF cell death, propidium iodide flow cytometry; assay type: cell-based, mouse; conditions: increasing concentrations, 15 h
Protocol: (§1) MEF cells, including wild-type, Bax/Bak double knockout, Bax−/− single knockout, and Bak−/− single knockout were tested and characterized (Supplementary Fig. S3). The cells were cultured in DMEM (Life Technologies), supplemented with 10% fetal bovine serum (FBS) (Thermo Scientific HyClone) and 1% Penicillin/streptomycin solution (Life Technologies). The retrovirally transduced lymphoma cells isolated from Eμ-myc transgenic mice were provided by Ricky W. Johnstone at the University of Melbourne, Melbourne, Australia and cultured as previously described[37],[65].
(§2) MEFs were seeded in 24-well plates at 0.5 × 10^5 cells/well, left to adhere for 5 hours and then treated for 15 hours with increasing concentrations of the compounds. The cells were harvested, washed with phosphate-buffered saline (PBS) and stained with 0.025 mg/ml propidium iodide (MP Biomedicals). The percentage of the propidium iodide positive population was determined by flow cytometry and calculated using WinList 3.0.

[2] = system: Bax/Bak double knockout (DKO) MEFs; experiment: MEF cell death, propidium iodide flow cytometry; assay type: cell-based, mouse; conditions: increasing concentrations, 15 h
Protocol: as §1, §2

[3] = system: Bax−/− single knockout MEFs; experiment: MEF cell death, propidium iodide flow cytometry; assay type: cell-based, mouse; conditions: increasing concentrations, 15 h
Protocol: as §1, §2

wild-type MEFs = experiment: MEF cell death, propidium iodide flow cytometry; assay type: cell-based, mouse; conditions: increasing concentrations, 15 h
Protocol: as §1, §2

[4] = system: Eµ-myc lymphoma cells overexpressing Bcl-2; experiment: Eµ-myc lymphoma cell viability, flow cytometry; assay type: cell-based, mice; conditions: increasing concentrations
Protocol: as §1
(§3) The Mcl-1, Bcl-2, and Bcl-xL retroviral transduced lymphoma Eμ-myc cells were seeded in 12-well plates at 0.5 × 10^6 cells/well. […] The cells were harvested and stained with violet LIVE/DEAD Fixable Dead Cell Stain Kit (Invitrogen) according to manufacturer’s protocol. The percentage of fluorescent positive cells was determined by flow cytometry and calculated using WinList 3.0.

[5] = system: Eµ-myc lymphoma cells overexpressing Bcl-xL; experiment: Eµ-myc lymphoma cell viability, flow cytometry; assay type: cell-based, mice; conditions: increasing concentrations, 15 h
Protocol: as §1, §3

[6] = system: Eµ-myc lymphoma cells overexpressing Mcl-1; experiment: Eµ-myc lymphoma cell viability, flow cytometry; assay type: cell-based, mice; conditions: increasing concentrations, 15 h
Protocol: as §1, §3

Mcl-1 protein [7] = target: T1, Mcl-1 protein (Homo sapiens, UniProt Q07820); experiment: FP-based competitive binding assay with fluorescent labelled Bid BH3 peptide; conditions: competition with fluorescent Bid probe 2 nM, 20 nM Mcl-1 for purchased compounds, 10 nM for synthesized library
T1 construct: human Mcl-1 (residues 171–323); His tag (pHis-TEV vector) (N, cleaved yes); made in house; host or cells: E. coli BL21 (DE3)
T1 sequence (Q07820 171-323): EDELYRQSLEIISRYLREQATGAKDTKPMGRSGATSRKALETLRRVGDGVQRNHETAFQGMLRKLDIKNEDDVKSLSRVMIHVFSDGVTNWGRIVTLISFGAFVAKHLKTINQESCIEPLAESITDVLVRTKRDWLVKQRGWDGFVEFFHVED
Protocol: (§4) FP-based binding assays were developed and optimized to determine the binding affinities of inhibitors to the recombinant Mcl-1, Bcl-2, Bcl-xL, and Bfl-1, proteins. […] The fluorescent Bid probe was fixed at 2 nM for all assays, except for Bfl-1, where 1 nM was used. 5 μL of the tested compound in DMSO and 120 μL of protein/probe complex in the assay buffer were added to assay plates (Corning #3792), incubated at room temperature for 3 h, and the polarization values (mP) were measured at an excitation wavelength of 485 nm and an emission wavelength of 530 nm using the plate reader Synergy H1 Hybrid, BioTek. IC50 values were determined by nonlinear regression fitting of the competition curves (GraphPad Prism 6.0 Software). The Ki values were calculated as described previously.
(§5) 1. List of compounds purchased from vendors
(§6) Compound s 5, 6, 7, 8 and S3, S4, S5, S6 S7, S8, S9, S10, S17 were purchased from […]
(§7) Compound s 9, 10, 11 and S11, S12, S13 were purchased from I nterbioscreen […]
His-tagged proteins containing human Mcl-1 (residues 171–323), the isoform 2 construct of the human Bcl-2 [Bcl2-2 construct for protein production starts with the Bcl2 sequence of 1-34 a a, followed by the Bcl-xL seq uence of 35-50 aa, and ends with the Bcl-2 sequenc e of 92-202aa.], Bcl-xL (Human Bcl-xL protein, which has an internal deletion for the 45 -85 amino acid residues and a C -terminal truncation for the amino acid residues 212-233), and Bf l-1 (residues 1-151), were expres sed from the pHis -TEV vector (a modified pET vector) in E. coli BL21 (DE3) cells. Cells were grown at 37 °C in 2×YT containing antibiotics to an OD600 density of 1.5, 1 and 0.8 for Mcl-1, Bcl-xL and Bcl-2 respectively. Protein expression wa s induced by 0 .4 mM IPTG at 20 °C overnight for all proteins except for Bf l-1 which was e xpressed at 3 7 °C for four hours . Cells were lysed in 20 mM HEPES pH 7.5, 200 mM NaCl, 0.1% βME with Leupeptin/Aprotinin (Mcl-1), 25mM Tris pH 8.5, 200mM NaCl (Bcl-2), 50mM Tris pH 7.5, 200 mM NaCl (Bcl-xL) and 50 mM Tris pH 8, 500 mM NaCl, 0. 1% βME with Leupeptin/Aprotinin (Bf l-1). All […]
proteins were purified from the soluble fraction using Ni-NTA resin (QIAGEN), following the manufacturer’s instructions. For purification of TEV-cleaved protein, the amino-terminal His tag was cleaved by incubation with TEV protease and the protein was further purified by anion exchange (Source Q) and gel filtration chromatography (Superdex 75, Amersham Biosciences) in 20mM HEPES pH 7.0, 50 mM NaCl (Mcl-1), […]
NaCl, 0.1% βME (Bcl-xL) and 25 mM Tris pH 7.5, 150 mM NaCl, 25% Glycerol, 0.1% βME ( Bf l-1). His-tagged Mcl-1 protein was used for TR-FRET assay and HSQC-NMR.
His-TEV cleaved Mcl-1, Bcl-2, Bcl-xL, and Bf l-1 were used in fluorescent polarization and surface plasmon resonance binding assays.
Mutant Mcl-1 protein wa s prepared by the QuikChange site -directed mutagenesi s method (Stratagene) , where Arg263 was mutated to Ala. The R263A expression pla smid was transformed into Rosetta2 DE3 cells and purified by the same method as the wildtype protein. Cultures were grown to an OD 600 of 1. 5 at 37 °C in Terrific Broth, induced with 0. 4 mM IPTG, and express ed overnight at 20 °C. The follow-up purification was performed the same way as was for Mcl-1 wild-type recombinant

Mcl-1 protein [8] = target: T1, Mcl-1 protein; experiment: SPR-based solution competitive binding assay, immobilized biotin-labelled Bim BH3 peptide; conditions: Mcl-1 20 nM; competition with immobilized Bim BH3 peptide
Protocol: The solution competitive SPR-based assay was performed on Biacore 2000 in a similar way as was already reported. Briefly, N terminal biotin-labelled Bim BH3 peptide (141–166 amino acids) was immobilized on streptavidin (SA) chip giving a density of 800 RU (Response Units). The pre-incubated Mcl-1 protein (20 nM) with tested small-molecule inhibitors for at least 30 min was injected over the surfaces of the chip using assay buffer HBS-P (GE, #BR100368). Response units were measured at 15 s in the dissociation phase, and IC50 values were determined by nonlinear least-squares analysis using GraphPad Prism 6.0 software.

Mcl-1/Noxa interaction = system: Mcl-1/Noxa interaction; design: method as in PubChem BioAssay AID 1417; conditions: Dose Response Confirmation for Mcl-1/Noxa Interaction Inhibitors; ref PubChem BioAssay AID 1417; cited from earlier work
Bfl-1 = target: T2, Bfl-1 (Homo sapiens, UniProt Q16548); experiment: FP-based competitive binding assay with FAM-Bid; conditions: Bfl-1
T2 construct: Bf l-1 (residues 1-151); His tag (pHis-TEV vector) (N, cleaved yes); made in house; host or cells: E. coli BL21 (DE3)
T2 sequence (Q16548 1-151): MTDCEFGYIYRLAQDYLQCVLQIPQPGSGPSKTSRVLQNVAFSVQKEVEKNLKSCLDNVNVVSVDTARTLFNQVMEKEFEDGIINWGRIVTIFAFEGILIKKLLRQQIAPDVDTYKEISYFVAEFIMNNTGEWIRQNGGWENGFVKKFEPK
Protocol: as §4, §5, §6, §7
His-tagged proteins containing human Mcl-1 (residues 171–323), the isoform 2 construct of the human Bcl-2 [Bcl2-2 construct for protein production starts with the Bcl2 sequence of 1-34 a a, followed by the Bcl-xL seq uence of 35-50 aa, and ends with the Bcl-2 sequenc e of 92-202aa.], Bcl-xL (Human Bcl-xL protein, which has an internal deletion for the 45 -85 amino acid residues and a C -terminal truncation for the amino acid residues 212-233), and Bf l-1 (residues 1-151), were expres sed from the pHis -TEV vector (a modified pET vector) in E. coli BL21 (DE3) cells. Cells were grown at 37 °C in 2×YT containing antibiotics to an OD600 density of 1.5, 1 and 0.8 for Mcl-1, Bcl-xL and Bcl-2 respectively. Protein expression wa s induced by 0 .4 mM IPTG at 20 °C overnight for all proteins except for Bf l-1 which was e xpressed at 3 7 °C for four hours . Cells were lysed in 20 mM HEPES pH 7.5, 200 mM NaCl, 0.1% βME with Leupeptin/Aprotinin (Mcl-1), 25mM Tris pH 8.5, 200mM NaCl (Bcl-2), 50mM Tris pH 7.5, 200 mM NaCl (Bcl-xL) and 50 mM Tris pH 8, 500 mM NaCl, 0. 1% βME with Leupeptin/Aprotinin (Bf l-1). All

Cc1c(-c2c(-c3ccc(F)o3)sc3ncnc(OC(Cc4ccccc4OCc4ccnn4CC(F)(F)F)C(=O)O)c23)ccc(OCCN2CCN(C)CC2)c1Cl (centres unmarked) [Compound S63845, reference compound]
cell death in Bak−/− MEFs [1]: not
cell death in Bax/Bak DKO MEFs [2]: not
cell death in Bax−/− MEFs [3]: not
cell death in wild-type MEFs (wild-type MEFs): induces cell death
effect on Eµ-myc cells overexpressing Bcl-2 [4]: sparing
effect on Eµ-myc cells overexpressing Bcl-xL [5]: sparing
killing of Eµ-myc cells overexpressing Mcl-1 [6]: selectively killing

Cc1ccc2nc(N3C(=O)C(O)=C(C(=O)c4cc5ccccc5o4)C3c3cccs3)sc2c1 (centres unmarked) [Compound 4]
IC50 (Mcl-1 protein [7]): 2.4 ± 1.1 µM
IC50 (Mcl-1 protein [8]): 4.5 ± 0.3 µM
IC50 (Mcl-1/Noxa interaction): 2.4 µM

CCOc1ccc(C(=O)Nc2cc(NC(=O)c3ccc(OCC)c(Cl)c3)cc(C(=O)O)c2)cc1Cl [Compound 3]
IC50 (Mcl-1 protein [7]): 9.6 ± 2.5 µM
IC50 (Mcl-1 protein [8]): 21.3 ± 5.4 µM
IC50 (Bfl-1): 2.5 ± 0.2 µM
IC50 (Mcl-1/Noxa interaction): 14.3 µM
